This is an account of results in patent publication US12171229B2, “Heteroaryl-triazole and heteroaryl-tetrazole compounds as pesticides” (BAYER AKTIENGESELLSCHAFT, priority 2018, dated 2024).

Type in all cases: in vivo
One assay concerns Diabrotica balteata. Briefly: Diabrotica balteata spray test. Particulars: Diabrotica balteata, in Triticum aestivum, 168 h, after 7 days, larvae on wheat seeds, read-out: efficacy (seedlings grown up); for pest or weed control at 80 µg/disc, 250 g/ha: 80 μg/well (=250 g/ha); for pest or weed control at 160 µg/disc, 500 g/ha: 160 μg/well (=500 g/ha). The procedure, abridged: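 Germinated wheat seeds (5 per well, 1 day on agar) sprayed with compound diluted in water containing 1000 ppm emulsifier, then infested with 10–20 D. balteata larvae. Efficacy scored after 7 days: 100% = seedlings like untreated uninfested control, 0% = no seedlings grown.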

The test system of the next assay is Nilaparvata lugens. Briefly: Nilaparvata lugens spray test. Particulars: 336 h, after 14 days, rice plants. The protocol: Nilaparvata lugens—Spray Test
To produce a suitable preparation of active compound, 1 part by weight of active compound is mixed with the stated amount of solvents and is diluted with water, containing an emulsifier concentration of 1000 ppm, to the desired concentration. Further test concentrations are prepared by dilution with emulsifier containing water.
Rice plants (Oryza sativa) are sprayed with a preparation of the active ingredient of the desired concentration and the plants are infested with the brown planthopper (Nilaparvata lugens).
After 14 days mortality in % is determined. 100% means all planthoppers have been killed and 0% means none of the planthoppers have been killed.

For another assay, the system named is Spodoptera frugiperda. Briefly: Spodoptera frugiperda spray test. The settings on record: 168 h, after 7 days, larvae on maize leaf sections. In a few lines:
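Caterpillars are placed on sprayed, dried maize leaf sections. Sprays contain compound diluted in water with emulsifier at 1000 ppm; mortality in % is determined 7 days later.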

Another assay concerns Nezara viridula. Briefly: Nezara viridula spray test. Particulars: 96 h, after 4 days, larvae on barley plants. The procedure, abridged:
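Barley plants infested with Nezara viridula larvae were sprayed with compound diluted in water containing 1000 ppm emulsifier. Percent mortality was scored 4 days later, where 100% means all bugs killed and 0% none.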

A further assay has as its system Boophilus microplus. The assay can be described thus: Boophilus microplus injection test. The settings on record: Rhipicephalus microplus, 168 h; 20 μg/animal injected into the abdomen; adult engorged female ticks; egg deposition after 7 days; read-out: efficacy (infertile eggs). The procedure, abridged:
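Five engorged adult female ticks received a 1 μl abdominal injection of compound in DMSO. They were then held in a climate chamber, with egg deposition checked after 7 days. Unclear eggs were kept until hatching at about 42 days, and efficacy was scored as the percentage of infertile eggs.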

Assay [1] concerns Ctenocephalides felis. The assay can be described thus: Ctenocephalides felis oral test. Particulars: 48 h, 100 ppm in cattle blood, after 2 days, adult unfed cat fleas. In a few lines: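 About 20 unfed adult cat fleas feed through parafilm on cattle blood dosed with compound from a DMSO stock. Blood chamber at 37° C, fleas at room temperature. Percent mortality scored after 2 days.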

Assay [2] relates to Ctenocephalides felis. Briefly: Ctenocephalides felis in-vitro contact test, adult cat flea. Particulars: 5 μg/cm^2 (=500 g/ha), after 48 hours, adult cat fleas, read-out: efficacy (fleas dead or moribund). The protocol:
Ctenocephalides Felis—In-Vitro Contact Tests Adult Cat Flea 9 mg compound is solved in 1 ml acetone and diluted with acetone to the desired concentration. 250 μl of the test solution is filled in 25 ml glass test tubes and homogeneously distributed on the inner walls by rotation and tilting on a shaking device (2 h at 30 rpm). With a compound concentration of 900 ppm, an inner surface of 44.7 cm^2 and a homogeneous distribution, a dose of 5 μg/cm^2 is achieved. After the solvent has evaporated, each test tube is filled with 5-10 adult cat fleas (Ctenocephalides felis), closed with a perforated lid and incubated in a lying position at room temperature and relative humidity. After 48 hours efficacy is determined. The fleas are patted on the ground of the tubes and are incubated on a heating plate at 45-50° C. for at most 5 minutes. Immotile or uncoordinated moving fleas, which are not able to escape the heat by climbing upwards, are marked as dead or moribund. […] An efficacy of 100% means all fleas are dead or moribund; 0% means no fleas are dead or moribund.

In assay [3] the test system is Aedes aegypti strain MONHEIM. The assay can be described thus: Aedes aegypti test (AEDSAE surface treatment & contact assay). The settings on record: 24 hours after contact, read-out: efficacy (mortality). In a few lines: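 Compound dissolved in acetone (2 mg/ml) with 2000 ppm rapeseed oil methyl ester, applied to glazed tile and dried; adult strain MONHEIM mosquitoes exposed 30 minutes. Percent mortality scored 24 hours after contact.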

Assay [4] has as its system Musca domestica strain WHO-N. The assay can be described thus: Musca domestica test (MUSCDO surface treatment & contact assay). Particulars: 24 hours after contact, read-out: efficacy (mortality). The protocol: Musca domestica test (MUSCDO surface treatment & contact assay)
(§1) Solvent: Aceton+2000 ppm rapeseed oil methyl ester (RME)
In order to produce a sufficient, active ingredient containing solution it is necessary to solve the test compound in the solvent-mix (acetone at 2 mg/ml/RME 2000 ppm). This solution is pipetted onto a glazed tile and after evaporation of the acetone, adult flies of the species Musca domestica strain WHO-N are placed onto the dried surface. The exposure time is 30 minutes.
Mortality in percent (%) is determined 24 hours after contact of the insects to the treated surface. 100% morality means that all tested insects are dead, whereas 0% means that no insect died.

Assay [5] relates to Culex quinquefasciatus strain P00. The assay can be described thus: Culex quinquefasciatus test (CULXFA surface treatment & contact assay). Particulars: 24 hours after contact, read-out: efficacy (mortality). The protocol: Culex Quinquefasciatus Test (CULXFA Surface Treatment & Contact Assay)
as §1
In order to produce a sufficient, active ingredient containing solution it is necessary to solve the test compound in the solvent-mix (acetone at 2 mg/ml/RME 2000 ppm). This solution is pipetted onto a glazed tile and after evaporation of the acetone, adult mosquitoes of the species Culex quinquefasciatus strain P00 are placed onto the dried surface. The exposure time is 30 minutes.
(§2) Mortality in percent (%) is determined 24 hours after contact of the insects to the treated surface. 100% mortality means that all tested insects are dead, whereas 0% means that no insect died.

For assay [6], the system named is Myzus persicae. The assay can be described thus: Myzus persicae spray test. The settings on record: foliar, 120 h, after 5 days, Chinese cabbage leaf disks. The procedure, abridged: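 Chinese cabbage leaf disks infested with all aphid instars were sprayed with compound diluted in water containing emulsifier (1000 ppm). Mortality (%) was scored after 5 days, 100% meaning all aphids killed.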

Assay [7] deals with Anopheles funestus strain FUMOZ-R. Briefly: Anopheles funestus test (ANPHFU surface treatment & contact assay). Particulars: 24 hours after contact, read-out: efficacy (mortality). The protocol: Anopheles funestus Test (ANPHFU Surface Treatment & Contact Assay)
as §1
In order to produce a sufficient, active ingredient containing solution it is necessary to solve the test compound in the solvent-mix (acetone at 2 mg/ml/RME 2000 ppm). This solution is pipetted onto a glazed tile and after evaporation of the acetone, adult mosquitoes of the species Anopheles funestus strain FUMOZ-R (Hunt et al., Med. Vet. Entomol. 2005 September; 19(3): 271-275) are placed onto the dried surface. The exposure time is 30 minutes.
as §2

Assay [8] concerns Myzus persicae. The assay can be described thus: Myzus persicae oral test. The settings on record: 120 h, 4 ppm, after 5 days. In a few lines:
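Aphid mortality (%) was recorded 5 days after a mixed Myzus persicae population began sucking, through parafilm, on compound solutions (acetone stock diluted with water) combined with sugar-supplemented IPL41 medium.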

Assay [9] concerns cattle ticks (Boophilus microplus) strane Parhurst, SP-resistant. Briefly: Boophilus microplus dip test. Particulars: Rhipicephalus microplus, 168 h, engorged adult female cattle ticks, egg deposition after 7 days, read-out: efficacy (infertile eggs). The protocol:
Boophilus microplus—Dip Test
Test animal: cattle ticks (Boophilus microplus) strane Parhurst, SP-resistant
Solvent: dimethyl sulfoxide
To produce a suitable preparation of active compound, 10 mg of active compound are dissolved in 0.5 ml solvent, and the concentrate is diluted with water to the desired concentration.
This compound solution is pipetted into tubes. 8-10 engorged, adult, female cattle ticks (Boophilus microplus) are placed in perforated tubes. These tubes are immersed in the aqueous compound solution until the ticks are completely moistened. After the liquid has drained off, the ticks are transferred to a filter paper in a plastic tray and stored in a climate chamber.
After 7 days egg deposition of fertile eggs is monitored. Eggs where fertility is not visible are stored in a climate chamber till hatching after about 42 days. An efficacy of 100% means all eggs are infertile; 0% means all eggs are fertile.

Setting [10] is: surface concentration 4 mg/m^2, exposure 30 minutes.
Setting [11] is: surface concentration 20 mg/m^2, exposure 30 minutes.

One may read the mortality as the percentage killed. On to `CC(NC(=S)c1cc(Cl)cc(C(F)(F)F)c1)c1ncnn1-c1ccc(C#N)cn1` (stereo in doubt) [Example I-080, 3-chloro-N-{(1R)-1-[1-(5-cyanopyridin-2-yl)-1H-1,2,4-triazol-5-yl]ethyl}-5-(trifluoromethyl)benzenecarbothioamide], for which, in the assay with Diabrotica balteata, the pest or weed control at 80 µg/disc, 250 g/ha was 100% and the pest or weed control at 160 µg/disc, 500 g/ha was found to be 80%. Also, the mortality at 500 g/ha in the assay with Nilaparvata lugens turned out to be 100%. In the assay on Spodoptera frugiperda, this compound had a mortality at 100 g/ha of 100% and a mortality at 500 g/ha of 100%. In the assay on Nezara viridula, the mortality at 100 g/ha amounted to 100% and the mortality at 500 g/ha came to 100%. Further, in the assay on Boophilus microplus, the pest or weed control at 0.02 mg is 100%. This compound also returned a mortality at 100 ppm in the assay with Ctenocephalides felis [1] of 100%. Further, in the assay on Ctenocephalides felis [2], the pest or weed control at 5 µg/cm2 turned out to be 100%.
With `C[C@H](NC(=O)c1cc(Cl)cc(C(F)(F)F)c1)c1ncnn1-c1ncc(F)cc1F` [Example I-014], the pest or weed control at 80 µg/disc, 250 g/ha in the assay on Diabrotica balteata is 100%. In addition, in the assay on Diabrotica balteata, the pest or weed control at 160 µg/disc, 500 g/ha turned out to be 100%. Also, the mortality at 4 mg/m2 fell in the range of 90 to 100% in assay [3] (setting [10]), 90 to 100% in assay [4] (setting [10]), 90 to 100% in assay [5] (setting [10]) and 85 to 100% in assay [7] (setting [10]). Moreover, the mortality at 20 mg/m2 in assay [3] (setting [11]), in [4] (setting [11]), in assay [5] (setting [11]) and in [7] (setting [11]) was 90 to 100% each time. The mortality at 500 g/ha with Nilaparvata lugens is 100%; in the assay with Spodoptera frugiperda, 100%; in the assay with Nezara viridula, 100%; with Myzus persicae [6], 90%. Moreover, the results for the mortality at 100 g/ha with Spodoptera frugiperda, in the assay on Nezara viridula and in the assay on Myzus persicae [6] were 100%, 100% and 90%, respectively. Further, the pest or weed control at 0.02 mg with Boophilus microplus turned out to be 100%. The mortality at 100 ppm in the assay with Ctenocephalides felis [1] was found to be 100%. The compound further displayed a mortality at 4 ppm in the assay on Myzus persicae [8] of 100%.
Take `C[C@H](NC(=O)c1cc(Cl)cc(C(F)(F)F)c1)c1ncnn1-c1ccc(N(S(C)(=O)=O)S(C)(=O)=O)cn1` [Example I-037]: the pest or weed control at 80 µg/disc, 250 g/ha with Diabrotica balteata came out at 100%. Further, in the assay with Diabrotica balteata, the pest or weed control at 160 µg/disc, 500 g/ha turned out to be 100%. Also, the mortality at 500 g/ha is 100% in the assay on Nilaparvata lugens, 100% in the assay with Nezara viridula and 90% with Myzus persicae [6]. Further, the mortality at 100 g/ha in the assay on Spodoptera frugiperda was found to be 100%; with Nezara viridula, 100%; with Myzus persicae [6], 90%. Further, the pest or weed control at 0.02 mg in the assay with Boophilus microplus came to 100%. In the assay with Ctenocephalides felis [1], this compound showed a mortality at 100 ppm of 100%. In addition, in [9], the pest or weed control at 100 ppm turned out to be 100%. Further, in the assay with Ctenocephalides felis [2], the pest or weed control at 5 µg/cm2 came to 100%.
In the case of `C[C@H](NC(=O)c1cc(C(F)(F)F)cc(C(F)(F)F)c1)c1ncnn1-c1ncc(F)cc1F` [Example I-077], the pest or weed control at 80 µg/disc, 250 g/ha with Diabrotica balteata was found to be 100%. Moreover, in the assay on Diabrotica balteata, the pest or weed control at 160 µg/disc, 500 g/ha came out at 100%. Further, the mortality at 500 g/ha was found to be 100% in the assay with Nilaparvata lugens, 100% in the assay on Spodoptera frugiperda, 100% in the assay with Nezara viridula and 90% in the assay with Myzus persicae [6]. For the same compound, the mortality at 100 g/ha in the assay with Spodoptera frugiperda was 100%; in the assay with Nezara viridula, 100%; with Myzus persicae [6] it was 90%. Besides, in the assay on Boophilus microplus, the pest or weed control at 0.02 mg was determined as 100%. The compound also had a mortality at 100 ppm in the assay with Ctenocephalides felis [1] of 100%. Also, the mortality at 4 ppm with Myzus persicae [8] came out at 100%. For the same compound, in the assay on Ctenocephalides felis [2], the pest or weed control at 5 µg/cm2 stood at 100%.
`C[C@H](NC(=O)c1cc(Cl)cc(C(F)(F)F)c1)c1ncnn1-c1ccc(C(=O)NCC(F)(F)F)cn1` [Example I-078]: in the assay with Diabrotica balteata, the pest or weed control at 80 µg/disc, 250 g/ha was determined as 100% and the pest or weed control at 160 µg/disc, 500 g/ha was 80%. Also, the mortality at 500 g/ha in the assay with Nilaparvata lugens came out at 100%. Further, in the assay with Spodoptera frugiperda, the mortality at 100 g/ha was 100% and the mortality at 500 g/ha was found to be 100%. Further, in the assay on Nezara viridula, the mortality at 100 g/ha amounted to 90% and the mortality at 500 g/ha is 100%. In addition, the pest or weed control at 0.02 mg in the assay with Boophilus microplus turned out to be 100%. The same compound registered a mortality at 100 ppm in the assay with Ctenocephalides felis [1] of 100%. Also, in the assay with Myzus persicae [8], the mortality at 4 ppm amounted to 100%. Moreover, in the assay with Ctenocephalides felis [2], the pest or weed control at 5 µg/cm2 came to 90%.
